Measurements published in US20160000126A1, “MODULATION OF SALTY TASTE […] ALTERING THE FUNCTION OF BITTER- OR PKD2L1-[…] RECEPTOR CELLS” (THE TRUSTEES OF COLUMBIA UNIVERSITY IN THE CITY OF NEW YORK, priority 2013, published 2016).

Tests used:
[1] = tested on: T2R32-Sapphire positive taste cells; test: calcium imaging of fungiform taste receptor cells; format: cell-based; conditions: T2R32-Sapphire mice; for response of T2R32-Sapphire positive taste cells to stimulus: 500 mM KCl (high-salt), 100 mM citric acid (sour)
Method: Calcium imaging from fungiform TRCs was performed as previously described (Chandrashekar et al. (2010); Oka et al. (2006)).
Fungiform TRCs were loaded in vivo with Calcium Green-1 dextran 3 kD (Invitrogen) by electroporating individual taste buds. Tongues were removed 24-36 hours after dye loading, and the epithelium was peeled enzymatically and placed in a custom recording chamber. The apical surface of the preparation was bathed in a constant flow of artificial saliva, and taste stimuli were delivered by focal application to individual taste buds. Tastants were applied for 1 second, with a minimum of 10 seconds of artificial saliva between stimuli. Changes in [Ca2+]i were monitored using a 5-Live confocal microscope (Zeiss) equipped with a ×40 C-Apochromat 1.20 W objective; images were captured at 4 Hz, and ΔF/F from individual TRCs analyzed and pseudo-colored as described previously (Chandrashekar et al. (2010)).
To identify sapphire positive cells in T2R32-Sapphire mice, 405-nm excitation laser to separate sapphire and Calcium Green-1 fluorescence was used. Mean cellular fluorescence intensity (F) was calculated for the individual TRCs and basal fluorescence (Fo) was assigned to each cell by averaging fluorescence intensity over 3 seconds just before tastant application. ΔF/F was calculated as [F−Fo]/Fo; taste cells were considered responders when ΔF/F exceeded 3 standard deviations above Fo within 5 seconds of tastant application.

[2] = tested on: tongue carbonic anhydrases; test: chorda tympani nerve recordings before and after DZA treatment of the tongue; format: in vivo, mice
CA4 = CA4 (Mus musculus, UniProt Q64444); conditions: TRPM5-KO mice; before and after addition of 30 mM KHCO3 (pH7.4)
CA4, sequence (Q64444 18-277): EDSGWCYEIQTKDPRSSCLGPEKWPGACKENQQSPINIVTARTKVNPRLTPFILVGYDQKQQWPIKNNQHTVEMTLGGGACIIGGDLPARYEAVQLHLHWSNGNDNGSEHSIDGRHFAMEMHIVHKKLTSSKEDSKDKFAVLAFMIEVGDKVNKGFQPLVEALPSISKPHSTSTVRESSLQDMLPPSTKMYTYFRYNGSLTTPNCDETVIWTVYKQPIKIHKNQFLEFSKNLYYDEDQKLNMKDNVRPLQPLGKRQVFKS

[3] = tested on: bitter taste receptor cells / high-salt sensing pathway; test: chorda tympani nerve recordings before and after AITC application to the tongue; format: in vivo, mice
Method: Lingual stimulation and recording procedures were performed as previously described (Chandrashekar et al. (2010); Nelson et al. (2002)). Data analysis used the integrated response during the 5 seconds of tastant stimulation.
Responses to 20 mM citric acid (FIGS. 2 and 3), 60 mM NaCl (FIG. 8, 12, and 13), or 250 mM KCl before AITC application (FIG. 13) were used to normalize responses for each experimental series. For FIG. 7, data were normalized to 20 mM citric acid and then scaled to WT responses before AITC application. Data were analyzed for statistical significance using an unpaired, one-tailed Student's t-test and 95% confidence limits.
To compute the amiloride-sensitive salt component, the stimulation regime involved sequential applications of NaCl solutions first without, and then with, amiloride (5 seconds pre- or pre- and post-incubation and co-application with NaCl solution) in the same experimental series. The amiloride-insensitive component was defined as the response in the presence of amiloride. The fraction of the response inhibited by amiloride was defined as the amiloride-sensitive component (amiloride-sensitive component=response without amiloride−response with amiloride).
For pharmacological inhibition studies using allyl isothiocyanate (AITC), responses to a series of taste stimuli were measured. Then 3 mM AITC (Aldrich, 377430-5G) was applied to the tongue at a rate of 6 ml/minute for 5 minutes. The tongue was washed with artificial saliva for 1 minute and nerve responses to the same series of taste stimuli measured. Responses before and after AITC were compared for each animal. To minimize effects of recovery, responses after AITC were recorded within 15 minutes of AITC treatment.

[4] = control and T2R-PLC rescue animals, AITC treatment

With O=C(O)CC(O)(CC(=O)O)C(=O)O [citric acid] the “response of T2R32-Sapphire positive taste cells to stimulus” value [1] was “not”.
With CCN[C@H]1C[C@H](C)S(=O)(=O)c2sc(S(N)(=O)=O)cc21 [DZA, dorzolamide] the “taste responses from PKD2L1-TeNT mice” value ([2]; PKD2L1-TeNT mice, various salts, 0.5% w/v DZA) was “completely insensitive”, the “sour and low salt taste responses” value ([2]; TRPM5-KO mice, 20 mM citric acid, 60 mM NaCl, 0.5% w/v DZA) was “insensitive” and the “CO2 chorda tympani responses” value ([2]; TRPM5-KO mice, 0.5% w/v DZA) was “affected”. The “high-salt induced chorda tympani responses from sour taste cells” value ([2]; TRPM5-KO mice, 0.5% w/v DZA for 5 minutes) was “reduced”.
With O=C(O)O [KHCO3] the “chorda tympani responses to 500 mM KCl or 100 mM CaCl2 (PKD2L1-cell mediated high-salt responses)” value (CA4) was “strong inhibition”.
C=CCN=C=S [AITC, allyl isothiocyanate] was tested, and the “chorda tympani responses to high concentration of bitter tastant cycloheximide” value ([3]; 1 mM cycloheximide, 1 and 30 minutes after AITC treatment) was “strongly suppresses”, the “chorda tympani responses to other bitter tastants” value ([3]; 10 mM denatonium and 10 mM quinine, after AITC treatment) was “suppressed” and the “chorda tympani response to sour taste” value ([3]; 20 mM citric acid, after AITC treatment) was “remained unimpaired”. For the same molecule, the “taste response evoked by AITC itself” value ([3]; 5 minutes exposure of the tongue to 3 mM AITC) was “minimal taste response”, the “fraction of high-salt neural responses eliminated” value ([3]; AITC treatment, FIG. 7) was “about 50%” and the “remaining high-salt (KCl) responses in PKD2L1-TeNT mice” value ([3]; PKD2L1-TeNT mice, further treatment with AITC) was “effectively abolished”. The “bitter and high-salt taste responses in TRPA1-KO mice” value ([3]; TRPA1-KO mice, with and without AITC) was “robust AITC-mediated suppression”, the “nerve responses to high salt in TRPM5 and PLCβ2 knockout mice” value ([3]; TRPM5-KO and PLCβ2-KO mice, before and after AITC) was “no longer sensitive” and the “chorda tympani responses to 0.1 mM cycloheximide” value [3, 4] was “almost completely suppressed”. The “chorda tympani responses to 500 mM KCl and 500 mM NaCl in the presence of 10 μM amiloride” value [3, 4] was “reduced by half”, the “chorda tympani bitter responses” value ([3]; wild type mice, 0.1 mM cycloheximide, after 3 mM AITC) was “completely inhibited” and the “chorda tympani responses to low salt” value ([3]; wild type mice, 60 mM NaCl, after 3 mM AITC) was “did not affect”. The “chorda tympani responses to high-salt” value ([3]; wild type mice, 250 or 500 mM NaCl + amiloride and KCl, after 3 mM AITC for 5 minutes) was “significantly suppressed”, the “chorda tympani responses to KCl (selectively activates the high-salt pathway)” value ([3]; wild type mice, after 3 mM AITC) was “Identical suppression” and the “chorda tympani responses to other taste qualities” value ([3]; wild type mice, sour, sweet, umami tastants, after 3 mM AITC) was “did not affect”.
With [Cl-].[K+] [KCl, potassium chloride] the “number of Sapphire-positive cells activated” value ([1]; 500 mM KCl) was 12 cells and the “response of T2R32-Sapphire positive taste cells to stimulus” value [1] was “responded”.
